Source: US8193149B2, “Use of Peptide YY, alone or in combination with glucagon-like peptide, for use in medicine” (mondoBIOTECH Laboratories AG, priority 2007, dated 2012)
No end group written: not given here.

Assays:
HIV-1IIIB = test: HIV-1 antiviral assay in CEM-SS cells (MTS readout); type: cell-based
HCMV strain AD169 = test: HCMV plaque formation assay in MRC-5 cells; type: cell-based
[1] = tested on: Primary Human endothelial cells (HUVEC); test: Endothelial cell migration assay; type: cell-based; details: single peptide, 10 micrograms per ml, 22 hours
[2] = tested on: hepatitis B virus (HBV) ayw strain in HepG2-2.2.15 cells; test: HBV experimental assay system, secreted HBV DNA by TaqMan PCR; type: cell-based; details: single peptide, 10 micrograms per ml; HepG2-2.2.15, six days
Method: HepG2-2.2.15 is a stable cell line containing the hepatitis B virus (HBV) ayw strain genome (ATCC Cat. No. CRL-11997). […] After 16-24 hours the confluent monolayer of HepG2-2.2.15 cells was washed and the medium was replaced with complete medium containing test peptides—10 micrograms per ml—in duplicate. […] Three days later the culture medium was replaced with fresh medium containing the peptides. Six days following the initial administration of the peptides, the cell culture supernatants was collected, treated with pronase and DNAse and then used in a real-time quantitative TaqMan PCR assay. The PCR-amplified HBV DNA was detected in real-time by monitoring increases in fluorescence signals that result from the exonucleolytic degradation of a quenched fluorescence probe molecule that hybridizes to the amplified HBV DNA. For each PCR amplification, a standard curve was simultaneously generated using dilutions of purified HBV DNA. Antiviral activity was calculated from the reduction in HBV DNA levels (% virus control).

HUVEC = test: Endothelial tube formation assay; type: cell-based, human; details: single peptide, 10 micrograms per ml, 20 hours
Method: The endothelial tube formation assay is based on the ability of endothelial cells to form three-dimensional capillary-like tubular structures when cultured on a gel of basement membrane extract. […] Pre-labeled HUVEC with Calcein AM were seeded in a 96-well culture plate coated with extracellular metrix (Chemicon international Cat. ECM625) and treated with test peptides—10 micrograms per ml—in full growth medium. Positive control was vehicle only. The endothelial cells were allowed to form tubes foe 20 hours and were then examined under an inverted fluorescent microscope. Duplicate wells for each treatment were photographed and quantitatevily analyzed for an average tubule length using image analysis software ImageProPlus. Raw data were expressed as average tubule lenghs in pixels ± standard deviation. Statistic p values were computed using the Student's t-test.

spleen cells = test: Th1/Th2 cytokine profiling assay; type: cell-based, Balb/c mice; details: 10 micrograms per ml; Ovalbumin restimulation, 72 hours

Cc1cn([C@H]2C[C@H](N=[N+]=[N-])[C@@H](CO)O2)c(=O)[nH]c1=O [AZT]
antiviral activity of positive control compounds (HIV-1) (HIV-1IIIB): expected levels of antiviral activity

Nc1nc(O)c2ncn(COC(CO)CO)c2n1 [Ganciclovir, reference compound]
antiviral activity of positive control compound (HCMV) (HCMV strain AD169; HCMV AD169): expected levels of antiviral activity

CC(C)(C)NC(=O)[C@@H]1CN(Cc2cccnc2)CCN1C[C@@H](O)C[C@@H](Cc1ccccc1)C(=O)N[C@H]1c2ccccc2C[C@H]1O [indinavir]
antiviral activity of positive control compounds (HIV-1) (HIV-1IIIB): expected levels of antiviral activity

His-Asp-Glu-Phe-Glu-Arg-His-Ala-Glu-Gly-Thr-Phe-Thr-Ser-Asp-Val-Ser-Ser-Tyr-Leu-Glu-Gly-Gln-Ala-Ala-Lys-Glu-Phe-Ile-Ala-Trp-Leu-Val-Lys-Gly-Arg-Gly-OH (HDEFERHAEGTFTSDVSSYLEGQAAKEFIAWLVKGRG-OH; listed as Homo sapiens) [Peptide 2, commercially available known peptide]
inhibition of HCMV plaque formation as compared to the virus control (HCMV strain AD169; 10 micrograms per ml, 7-10 days): did not inhibit | inhibition of the migration of human endothelial cells [1]: 65% | inhibition of HBV replication as compared to the virus control infection [2]: 62.3% | inhibition of the tube formation of human endothelial cells (HUVEC): 25% | IFNγ spleen cells; TH1 response (% of control) (spleen cells): 78.0 % of control | IL-2 spleen cells (% of control) (spleen cells): 163.4 % of control | IL-4 spleen cells; TH2 response (% of control) (spleen cells): 135.2 % of control | IL-5 spleen cells; TH2 response (% of control) (spleen cells): 121.7 % of control | TNF-a spleen cells; TH1 response (% of control) (spleen cells): 145.1 % of control
